Data published in patent US20240166630A1, “INDOLE DERIVATIVES AS SEROTONERGIC AGENTS USEFUL FOR THE TREATMENT OF DISORDERS RELATED THERETO” (Mindset Pharma Inc., priority 2021, published 2024).
Several values for one entry are separate records, joined by “and”; a condition that tells them apart may be missing. Identical values can stand only once. Like-named read-outs stand apart in the source and are kept apart here.

Tests used:
[1] = Liver microsomes stability with NADPH, human
Method: The objective of this study was to estimate in vitro metabolic stability of representative compounds of the application in pooled human and male mouse liver microsomes. The concentrations of parent compounds in reaction systems were evaluated by LC-MS/MS for estimating the stability in pooled human and male mouse liver microsomes. The in vitro intrinsic clearances of test compounds were determined as well.
A master solution in the “Incubation Plate” containing phosphate buffer, ultra-pure H2O, MgCl2 solution and liver microsomes was made according to Table 3. The mixture was pre-warmed at 37° C. water bath for 5 minutes.
40 μL of 10 mM NADPH solution was added to each well. The final concentration of NADPH was 1 mM. The negative control samples were prepared by replacing NADPH with 40 μL of ultra-pure H2O. Samples were prepared in duplicate. Negative controls were prepared in singlet.
The reaction was started with the addition of 4 μL of 200 μM test compounds or control compounds to each master solution to get the final concentration of 2 μM. This study was performed in duplicate.
Aliquots of 50 μL were taken from the reaction solution at 0, 15, 30, 45 and 60 minutes. The reaction solutions were stopped by the addition of 4 volumes of cold methanol with IS (100 nM alprazolam, 200 nM imipramine, 200 nM labetalol and 2 μM ketoprofen). Samples were centrifuged at 3,220 g for 40 minutes. Aliquot of 90 μL of the supernatant was mixed with 90 μL of ultra-pure H2O and then was used for LC-MS/MS analysis.
LC/MS analysis was performed for all samples from this study using a Shimadzu liquid chromatograph separation system equipped with degasser DGU-20A5R; solvent delivery unit LC-30AD; system controller SIL-30AC; column oven CTO-30A; CTC Analytics HTC PAL System; Mass spectrometric analysis was performed using an Triple Quad™ 5500 instrument.
All calculations were carried out using Microsoft Excel. Peak area ratios of test compound to internal standard (listed in the below table) were determined from extracted ion chromatograms.
All calculations were carried out using Microsoft Excel. Peak areas were determined from extracted ion chromatograms. The slope value, k, was determined by linear regression of the natural logarithm of the remaining percentage of the parent drug vs. incubation time curve.
The in vitro half-life (in vitro t1/2) was determined from the slope value:
Conversion of the in vitro t1/2 (min) into the in vitro intrinsic clearance (in vitro CLint, in μL/min/mg proteins) was done using the following equation (mean of duplicate determinations): […]

[2] = In vivo pharmacokinetics in male C57BL/6 mice; design: species or system mouse
Method: Animals: Male C57BL/6 mice (25-30 g) from Charles River Labs were acclimatized for a minimum of 5 days prior to dosing. Body weights were recorded on the day of dosing.
Food restriction: Animals dosed p.o. were deprived of food overnight and fed ˜2 h following dosing.
Dosing: Formulations were administered intravenously (i.v.) via the tail vein or orally (p.o.) by gavage with disposable feeding needles.
Sample collection: Serial blood samples was collected via tail snip. Terminal blood samples was collected under isoflurane anesthesia by cardiac puncture.
Sample processing/storage: All blood samples were transferred into K2EDTA tubes on wet ice and centrifuged within 5 min (3200× g for 5 min at 4° C.) to obtain plasma. Plasma was stored at −80° C. until analysis.
Instrumentation: AB Sciex QTRAP 4000 or 6500 MS/MS system equipped with an LC system with a binary pump, a solvent degasser, a thermostatted column compartment and a multiplate autosampler.
5. PK Analysis • i. Analysis software: Phoenix® WinNonlin® 8.2 (Pharsight, Certara, Mountainview, CA) • ii. Analysis methods: non-compartmental analysis, linear up/log down trapezoidal rule • iii. PK parameters: C0, t1/2, AUC0-tlast. AUC0-∞, CL, Vss, MRT, tmax(po), Cmax(po), F, as appropriate

[3] = 9.92 mg/kg i.v., individual animals M10-M12
[4] = 9.92 mg/kg p.o., individual animals M13-M15
[5] = 9.92 mg/kg s.c., individual animals M16-M18

[2H]C([2H])(c1c[nH]c2ccccc12)[C@H]1CCCN1C([2H])([2H])[2H] [I-B-1, (R)-3-((1-(methyl-d3)pyrrolidin-2-yl)methyl-d2)-1H-indole]
Remaining Percentage (%) after 60 min Human ([1]; human liver microsomes, with NADPH, 2 μM): 82.74%
half-life at 2 μM ([1]; human, microsomes): 3.66 h
microsomal CLint at 2 μM ([1]; human, microsomes): 6.32 µL/min/mg
AUC0-tlast [2, 3]: 3708 ng·h/mL and 4440 ng·h/mL
AUC(0-inf) [2, 3]: 3709 ng·h/mL and 4441 ng·h/mL
Apparent t1/2 [2, 3]: 2.16 h and 2.05 h
C0 [2, 3]: 3473 ng/mL and 3356 ng/mL
CL [2, 3]: 44.58 mL/min/kg and 37.23 mL/min/kg
MRT0-inf [2, 3]: 2.46 h and 2.57 h
Vss [2, 3]: 6.59 L/kg and 5.751 L/kg
F ([2]; 9.92 mg/kg p.o., Mean ± SD): 58.2 ± 18.4%
AUC0-tlast [2, 4]: 2782 ng·h/mL and 2260 ng·h/mL
AUC(0-inf) [2, 4]: 3099 ng·h/mL
Cmax [2, 4]: 516 ng/mL and 342 ng/mL
MRT0-inf [2, 4]: 8.54 h
tmax [2, 4]: 1.00 h and 0.500 h
F ([2]; 9.92 mg/kg p.o., individual animals M13-M15, for M15 AUC0-tlast used): 40.8% and 77.5% and 56.5%
Apparent t1/2 ([2]; 9.92 mg/kg p.o., individual animals, estimate may not be accurate): 9.46 h
F ([2]; 9.92 mg/kg s.c., Mean ± SD): 67.9 ± 6.24%
AUC0-tlast [2, 5]: 2833 ng·h/mL and 2429 ng·h/mL
AUC(0-inf) [2, 5]: 2834 ng·h/mL and 2431 ng·h/mL
Apparent t1/2 [2, 5]: 2.24 h and 2.56 h
Cmax [2, 5]: 1090 ng/mL and 950 ng/mL
F [2, 5]: 72.2% and 70.9% and 60.8%
MRT0-inf [2, 5]: 2.58 h
tmax [2, 5]: 0.500 h
clearance ([2]; male, C57BL/6, mouse, plasma, iv, 9.92 mg/kg, 9.92 mg/kg i.v., Mean ± SD): 41.7 mL/min/kg
AUC(0-inf) ([2]; male, C57BL/6, mouse, plasma, iv, 9.92 mg/kg, 9.92 mg/kg i.v., Mean ± SD, read-out: AUC0-inf): 4000 ± 389 ng·h/mL
AUC(0-t) ([2]; male, C57BL/6, mouse, plasma, iv, 9.92 mg/kg, 9.92 mg/kg i.v., Mean ± SD, read-out: AUC0-tlast): 4000 ± 389 ng·h/mL
half-life ([2]; male, C57BL/6, mouse, plasma, iv, 9.92 mg/kg, 9.92 mg/kg i.v., Mean ± SD, read-out: Apparent t1/2 (converted)): 2.17 ± 0.127 h
C0 ([2]; male, C57BL/6, mouse, plasma, iv, 9.92 mg/kg, 9.92 mg/kg i.v., Mean ± SD, read-out: C0): 3910 ± 868 ng/mL
MRT inf ([2]; male, C57BL/6, mouse, plasma, iv, 9.92 mg/kg, 9.92 mg/kg i.v., Mean ± SD, read-out: MRT0-inf): 2.43 ± 0.16 h
Vd ([2]; male, C57BL/6, mouse, plasma, iv, 9.92 mg/kg, 9.92 mg/kg i.v., Mean ± SD, read-out: Vss): 6.06 ± 0.464 L/kg
clearance ([2]; male, C57BL/6, mouse, plasma, iv, 9.92 mg/kg, 9.92 mg/kg i.v., individual animals M10-M12): 43 mL/min/kg
AUC(0-inf) ([2]; male, C57BL/6, mouse, plasma, iv, 9.92 mg/kg, 9.92 mg/kg i.v., individual animals M10-M12, read-out: AUC0-inf): 3850 ng·h/mL
AUC(0-t) ([2]; male, C57BL/6, mouse, plasma, iv, 9.92 mg/kg, 9.92 mg/kg i.v., individual animals M10-M12, read-out: AUC0-tlast): 3850 ng·h/mL
half-life ([2]; male, C57BL/6, mouse, plasma, iv, 9.92 mg/kg, 9.92 mg/kg i.v., individual animals M10-M12, read-out: Apparent t1/2 (converted)): 2.3 h
C0 ([2]; male, C57BL/6, mouse, plasma, iv, 9.92 mg/kg, 9.92 mg/kg i.v., individual animals M10-M12, read-out: C0): 4910 ng/mL
MRT inf ([2]; male, C57BL/6, mouse, plasma, iv, 9.92 mg/kg, 9.92 mg/kg i.v., individual animals M10-M12, read-out: MRT0-inf): 2.26 h
Vd ([2]; male, C57BL/6, mouse, plasma, iv, 9.92 mg/kg, 9.92 mg/kg i.v., individual animals M10-M12, read-out: Vss): 5.83 L/kg
AUC(0-t) ([2]; male, C57BL/6, mouse, plasma, po, 9.92 mg/kg, 9.92 mg/kg p.o., Mean ± SD, read-out: AUC0-tlast): 2170 ± 665 ng·h/mL
Cmax ([2]; male, C57BL/6, mouse, plasma, po, 9.92 mg/kg, 9.92 mg/kg p.o., Mean ± SD, read-out: Cmax): 389 ± 112 ng/mL
tmax ([2]; male, C57BL/6, mouse, plasma, po, 9.92 mg/kg, 9.92 mg/kg p.o., Mean ± SD, read-out: tmax): 0.25 h
AUC(0-inf) ([2]; male, C57BL/6, mouse, plasma, po, 9.92 mg/kg, 9.92 mg/kg p.o., individual animals M13-M15, read-out: AUC0-inf): 1630 ng·h/mL
AUC(0-t) ([2]; male, C57BL/6, mouse, plasma, po, 9.92 mg/kg, 9.92 mg/kg p.o., individual animals M13-M15, read-out: AUC0-tlast): 1460 ng·h/mL
Cmax ([2]; male, C57BL/6, mouse, plasma, po, 9.92 mg/kg, 9.92 mg/kg p.o., individual animals M13-M15, read-out: Cmax): 308 ng/mL
MRT inf ([2]; male, C57BL/6, mouse, plasma, po, 9.92 mg/kg, 9.92 mg/kg p.o., individual animals M13-M15, read-out: MRT0-inf): 8.91 h
half-life ([2]; male, C57BL/6, mouse, plasma, po, 9.92 mg/kg, 9.92 mg/kg p.o., individual animals, estimate may not be accurate, read-out: Apparent t1/2 (converted)): 9.66 h
AUC(0-inf) ([2]; male, C57BL/6, mouse, plasma, po, 9.92 mg/kg, 9.92 mg/kg p.o., mean (n = 2), read-out: AUC0-inf): 2360 ng·h/mL
half-life ([2]; male, C57BL/6, mouse, plasma, po, 9.92 mg/kg, 9.92 mg/kg p.o., mean (n = 2), read-out: Apparent t1/2 (converted)): 9.56 h
MRT inf ([2]; male, C57BL/6, mouse, plasma, po, 9.92 mg/kg, 9.92 mg/kg p.o., mean (n = 2), read-out: MRT0-inf): 8.72 h
AUC(0-inf) ([2]; male, C57BL/6, mouse, plasma, sc, 9.92 mg/kg, 9.92 mg/kg s.c., Mean ± SD, read-out: AUC0-inf): 2720 ± 249 ng·h/mL
AUC(0-t) ([2]; male, C57BL/6, mouse, plasma, sc, 9.92 mg/kg, 9.92 mg/kg s.c., Mean ± SD, read-out: AUC0-tlast): 2720 ± 250 ng·h/mL
half-life ([2]; male, C57BL/6, mouse, plasma, sc, 9.92 mg/kg, 9.92 mg/kg s.c., Mean ± SD, read-out: Apparent t1/2 (converted)): 2.3 ± 0.232 h
Cmax ([2]; male, C57BL/6, mouse, plasma, sc, 9.92 mg/kg, 9.92 mg/kg s.c., Mean ± SD, read-out: Cmax): 1240 ± 387 ng/mL
MRT inf ([2]; male, C57BL/6, mouse, plasma, sc, 9.92 mg/kg, 9.92 mg/kg s.c., Mean ± SD, read-out: MRT0-inf): 2.6 ± 0.186 h
tmax ([2]; male, C57BL/6, mouse, plasma, sc, 9.92 mg/kg, 9.92 mg/kg s.c., Mean ± SD, read-out: tmax): 0.25 h
AUC(0-inf) ([2]; male, C57BL/6, mouse, plasma, sc, 9.92 mg/kg, 9.92 mg/kg s.c., individual animals M16-M18, read-out: AUC0-inf): 2890 ng·h/mL
AUC(0-t) ([2]; male, C57BL/6, mouse, plasma, sc, 9.92 mg/kg, 9.92 mg/kg s.c., individual animals M16-M18, read-out: AUC0-tlast): 2880 ng·h/mL
half-life ([2]; male, C57BL/6, mouse, plasma, sc, 9.92 mg/kg, 9.92 mg/kg s.c., individual animals M16-M18, read-out: Apparent t1/2 (converted)): 2.1 h
Cmax ([2]; male, C57BL/6, mouse, plasma, sc, 9.92 mg/kg, 9.92 mg/kg s.c., individual animals M16-M18, read-out: Cmax): 1680 ng/mL
MRT inf ([2]; male, C57BL/6, mouse, plasma, sc, 9.92 mg/kg, 9.92 mg/kg s.c., individual animals M16-M18, read-out: MRT0-inf): 2.8 h
tmax ([2]; male, C57BL/6, mouse, plasma, sc, 9.92 mg/kg, 9.92 mg/kg s.c., individual animals M16-M18, read-out: tmax): 0.25 h
